Experimental data from patent publication US9517204B2, “Pharmaceutical composition for inhalation” (SHIONOGI & CO., LTD., priority 2011, dated 2016).
Read-outs that look alike come from different tables or passages of the source.

Key:
[1] = Reactive oxygen species (ROS) assay, photoreactivity testing; format: physicochemical
Text: This assay was established to monitor the generation of ROS, such as singlet oxygen and superoxide, from photoirradiated chemicals, and ROS generation would be indicative of the photochemical reactivity of tested chemicals.
In contrast, 8-methoxypsoralen (MOP) is known as a phototoxic and photoreactive chemical. Although 8-MOP slightly exceeded pirfenidone in ROS generation, both chemicals were identified to be photoreactive, as shown in FIG. 3 (A). When such photoreactivity and photoirritability are taken into consideration, pirfenidone can be said to raise concerns about photostability.

[2] = Pharmacokinetics (1): plasma and tissues after oral and intratracheal administration; format: in vivo, rats; settings: for Cmax / MRT / half-life / AUC(0-inf): rat
Protocol: However, the possibility of risk reduction of photodermatosis is not clear. In general, since drug-induced photodermatosis appear in the skin and eyes, the specific distribution of drug molecules in the skin and/or eyes could be a key consideration for evaluating the photodermatosis risk. Then, in order to verify the photosafety of the formulation 1, a pharmacokinetic study was undertaken after intratracheal administration of the formulation 1 at a pharmacologically effective dose (1 mg/kg). Additionally, since in the oral administration, both pharmaceutically effective and phototoxic dose (160 mg/kg) and pharmaceutically non-effective and non-phototoxic dose (30 mg/kg) are known, pharmacokinetic parameters were obtained after oral administration at both doses. Concentration-time curves of pirfenidone in the plasma, skin, lung, and eyes were obtained by UPLC/ESI-MS analysis after intratracheal and oral administrations. After oral administration of pirfenidone, plasma and lung concentrations of pirfenidone immediately reached the Cmax within 5 min and these concentrations decreased steadily with half lives of ca. 0.3-0.8 h.

skin = test: Phototoxic reaction in oral administration of pirfenidone (skin color, color difference meter); format: in vivo, rats; settings: for change of skin color compared to the control group: black light irradiation
Protocol: Hair of rats were carefully shaved by hair clipper, and pirfenidone was administered orally to the rats (160 mg/kg or 30 mg/kg), and the rats were irradiated with a black light. Colors of the skin before and after the light irradiation were evaluated with a color difference meter.

[3] = patients who have taken the oral agent; cited from earlier work
Photostability testing = format: physicochemical; settings: simulated sunlight (250 W/m^2)
Protocol: Here, in respirable formulation of pirfenidone, both liquid and dry powder formulations can be considered in theory. Then, to clarify the photochemical properties in more detail, photostability testing was carried out. […] In general, photosensitive chemicals in a solution state are far more prone to photodegradation than solid samples due to the high permeability of light and increased mobility of photochemically excited molecules and reactive species. From this, taken together with the result shown in FIG. 3 (B), dry powder formulation, rather than liquid formulation, is preferable as a respirable formulation of pirfenidone.

[4] = Pharmacokinetics 2: transmigration of pirfenidone to tissue after single-dose administration; set-up: species or system rats; settings: rat, in vivo, po, 160 mg/kg
Protocol: Similarly to Example 5, single-dose administrations of pirfenidone orally and the formulation 1 by inhalation were performed in rats, and the amount of transmigration of pirfenidone to each tissue was monitored by UPLC/ESI-MS. When compared in dose (160 mg/kg) having an anti-inflammatory activity, while the amount of skin-transmigration of pirfenidone in 1 hour after administration was about 50 ng/g-tissue via inhalation (1 mg/kg), the amount via oral administration (160 mg/kg) was about 20 μg/g-tissue. From this, while the amount of medication in inhalation is 1/160 in the case of oral administration, the amount of skin transmigration in inhalation decreases to 1/400 of oral formulation. […] Thus, the respirable formulation of the present invention has an excellent effect.

[5] = Pharmacokinetics (3): skin transmigration in repeated-dose administrations; format: in vivo
Protocol: Results of having monitored the amount of skin transmigration of pirfenidone in repeated-dose administrations by oral and inhalation are shown in FIG. 8. Although a temporary elevation of the pirfenidone concentration in the skin was observed by pirfenidone oral administration (30, 160 mg/kg) also in repeated-dose administrations in every 12 hours, the elevation disappeared in about 6 hours after administration. […] From this, the systemic side effect is considered to be avoidable even when the respirable formulation is used repeatedly.

[6] = 30 mg/kg oral, UV +, after treatment
[7] = 30 mg/kg oral, UV +, initial value
[8] = 30 mg/kg oral, UV −, after treatment
[9] = 30 mg/kg oral, UV −, initial value
[10] = 160 mg/kg oral, UV +, after treatment
[11] = 160 mg/kg oral, UV +, initial value
[12] = 160 mg/kg oral, UV −, after treatment
[13] = 160 mg/kg oral, UV −, initial value

SMILES: COc1c2occc2cc2ccc(=O)oc12 [Formulation 8-MOP, 8-methoxypsoralen]
- ROS generation (singlet oxygen, superoxide), photoreactivity ([1]; exposed to simulated sunlight (250 W/m^2)): photoreactive

SMILES: Cc1ccc(=O)n(-c2ccccc2)c1 [pirfenidone]
- AUC0→∞ ([2]; eyes, rats, 30 mg/kg, p.o.): 8.33 ± 0.39 h · μg/g tissue
- AUC0→∞ ([2]; eyes, rats, 160 mg/kg, p.o.): 58.8 ± 1.3 h · μg/g tissue
- AUC0→∞ ([2]; lung, rats, 30 mg/kg, p.o.): 6.45 ± 0.43 h · μg/g tissue
- AUC0→∞ ([2]; lung, rats, 160 mg/kg, p.o.): 52.1 ± 1.0 h · μg/g tissue
- Cmax ([2]; po, eyes, rats, 30 mg/kg): 3950 ± 300 ng/g
- MRT ([2]; po, eyes, rats, 30 mg/kg): 1.06 ± 0.13 h
- half-life ([2]; po, eyes, rats, 30 mg/kg, p.o., read-out: t1/2 (converted)): 0.668 ± 0.18 h
- Cmax ([2]; po, eyes, rats, 160 mg/kg): 26000 ± 2600 ng/g
- MRT ([2]; po, eyes, rats, 160 mg/kg): 1.93 ± 0.051 h
- half-life ([2]; po, eyes, rats, 160 mg/kg, p.o., read-out: t1/2 (converted)): 1.06 ± 0.27 h
- Cmax ([2]; po, lung, rats, 30 mg/kg): 6460 ± 690 ng/g
- MRT ([2]; po, lung, rats, 30 mg/kg): 0.787 ± 0.16 h
- half-life ([2]; po, lung, rats, 30 mg/kg, p.o., read-out: t1/2 (converted)): 0.799 ± 0.24 h
- Cmax ([2]; po, lung, rats, 160 mg/kg): 37600 ± 5700 ng/g
- MRT ([2]; po, lung, rats, 160 mg/kg): 1.32 ± 0.041 h
- half-life ([2]; po, lung, rats, 160 mg/kg, p.o., read-out: t1/2 (converted)): 0.766 ± 0.16 h
- AUC(0-inf) ([2]; po, plasma, rats, 30 mg/kg): 14100 ± 920 ng·h/mL
- Cmax ([2]; po, plasma, rats, 30 mg/kg): 19.7 ± 0.93 µg/mL
- MRT ([2]; po, plasma, rats, 30 mg/kg): 0.667 ± 0.094 h
- half-life ([2]; po, plasma, rats, 30 mg/kg, p.o., read-out: t1/2 (converted)): 0.33 ± 0.02 h
- AUC(0-inf) ([2]; po, plasma, rats, 160 mg/kg): 152000 ± 10000 ng·h/mL
- Cmax ([2]; po, plasma, rats, 160 mg/kg): 135 ± 11 µg/mL
- MRT ([2]; po, plasma, rats, 160 mg/kg): 1.05 ± 0.075 h
- half-life ([2]; po, plasma, rats, 160 mg/kg, p.o., read-out: t1/2 (converted)): 0.53 ± 0.03 h
- Cmax ([2]; po, skin, rats, 30 mg/kg): 8160 ± 470 ng/g
- MRT ([2]; po, skin, rats, 30 mg/kg): 1.14 ± 0.12 h
- half-life ([2]; po, skin, rats, 30 mg/kg, p.o., read-out: t1/2 (converted)): 1.07 ± 0.28 h
- Cmax ([2]; po, skin, rats, 160 mg/kg): 32900 ± 2600 ng/g
- MRT ([2]; po, skin, rats, 160 mg/kg): 1.7 ± 0.043 h
- half-life ([2]; po, skin, rats, 160 mg/kg, p.o., read-out: t1/2 (converted)): 1.06 ± 0.24 h
- half-life ([2]; plasma and lung, oral administration (30 and 160 mg/kg), read-out: half lives): 0.3 to 0.8 h
- half-life ([2]; skin and eye, after oral dosing, read-out: half-life of elimination phase): 0.7 to 1.1 h
- time of reaching maximum levels ([2]; skin and eye, after oral dosing): ca. 0.5 h
- AUC0→∞ ([2]; skin, rats, 30 mg/kg, p.o.): 11.5 ± 0.51 h · μg/g tissue
- AUC0→∞ ([2]; skin, rats, 160 mg/kg, p.o.): 68.0 ± 1.4 h · μg/g tissue
- ΔE, evaluation of color change (skin; 30 mg/kg oral, UV +): 2.40 ± 0.20
- L* (skin; [6]): 72.26
- a* (skin; [6]): 2.81
- b* (skin; [6]): 5.72
- L* (skin; [7]): 72.90
- a* (skin; [7]): 1.27
- b* (skin; [7]): 4.14
- ΔE, evaluation of color change (skin; 30 mg/kg oral, UV −): 1.47 ± 0.27
- L* (skin; [8]): 71.56
- a* (skin; [8]): 1.54
- b* (skin; [8]): −0.36
- L* (skin; [9]): 70.16
- a* (skin; [9]): 1.19
- b* (skin; [9]): −0.18
- change of skin color compared to the control group (skin; 30 mg/kg oral): significant change was not observed
- photodermatosis (skin; 30 mg/kg orally to rat): photodermatosis was not caused
- ΔE, evaluation of color change (skin; 160 mg/kg oral, UV +): 3.97 ± 0.59
- L* (skin; [10]): 72.35
- a* (skin; [10]): 2.06
- b* (skin; [10]): 9.17
- L* (skin; [11]): 71.05
- a* (skin; [11]): 0.89
- b* (skin; [11]): 5.67
- ΔE, evaluation of color change (skin; 160 mg/kg oral, UV −): 1.69 ± 0.24
- L* (skin; [12]): 71.04
- a* (skin; [12]): −1.04
- b* (skin; [12]): 4.88
- L* (skin; [13]): 70.59
- a* (skin; [13]): 0.09
- b* (skin; [13]): 3.67
- change of skin color compared to the control group (skin; 160 mg/kg oral): Change of skin color was intentionally observed
- expression frequency of drug-induced photodermatosis [3]: about 60%
- degradation (Photostability testing; powder): no significant degradation
- apparent first-order degradation rate (Photostability testing; solution): 0.31 ± 0.03 h⁻¹
- ROS generation (singlet oxygen, superoxide), photoreactivity [1]: photoreactive
- concentration at 1 h [4]: ~20000 ng/g
- time after administration at which the elevation of skin concentration disappeared ([5]; oral 30, 160 mg/kg, repeated-dose every 12 hours): about 6 hours
- accumulation in skin ([5]; oral, repeated-dose administrations): did not show any accumulation trend

SMILES: COc1cc(O)c(C(=O)c2ccccc2)cc1S(=O)(=O)O [Sulisobenzone, sulisobenzone]
- ROS generation (singlet oxygen, superoxide), photoreactivity [1]: no ability to generate ROS
